Test results from ChEMBL document CHEMBL5532675, “Discovery of 4-Ethoxy-6-chloro-5-azaindazoles as Novel PDE4 Inhibitors for the Treatment of Alcohol Use Disorder and Alcoholic Liver Diseases” (J Med Chem, 2024).

Assay: Tmax in Sprague-Dawley rat at 10 mg/kg, po measured after 24 hrs by LC-MS analysis
Assay type: ADME, organism-based
Conditions: in vivo

Which Tmax does the source give for `CCOc1nc(Cl)cc2c1cnn2CCCC(=O)O` here?
The Tmax was 4 h.
